Our source for the IC50 values is patent US8633183B2 (priority 2010, dated 2014).

The assay deals with PI3Kalpha (Homo sapiens (Human), UniProt P42336). As to conditions: read-out: IC50 PI3K.
Chain of PI3Kalpha (P42336 whole entry, looked up): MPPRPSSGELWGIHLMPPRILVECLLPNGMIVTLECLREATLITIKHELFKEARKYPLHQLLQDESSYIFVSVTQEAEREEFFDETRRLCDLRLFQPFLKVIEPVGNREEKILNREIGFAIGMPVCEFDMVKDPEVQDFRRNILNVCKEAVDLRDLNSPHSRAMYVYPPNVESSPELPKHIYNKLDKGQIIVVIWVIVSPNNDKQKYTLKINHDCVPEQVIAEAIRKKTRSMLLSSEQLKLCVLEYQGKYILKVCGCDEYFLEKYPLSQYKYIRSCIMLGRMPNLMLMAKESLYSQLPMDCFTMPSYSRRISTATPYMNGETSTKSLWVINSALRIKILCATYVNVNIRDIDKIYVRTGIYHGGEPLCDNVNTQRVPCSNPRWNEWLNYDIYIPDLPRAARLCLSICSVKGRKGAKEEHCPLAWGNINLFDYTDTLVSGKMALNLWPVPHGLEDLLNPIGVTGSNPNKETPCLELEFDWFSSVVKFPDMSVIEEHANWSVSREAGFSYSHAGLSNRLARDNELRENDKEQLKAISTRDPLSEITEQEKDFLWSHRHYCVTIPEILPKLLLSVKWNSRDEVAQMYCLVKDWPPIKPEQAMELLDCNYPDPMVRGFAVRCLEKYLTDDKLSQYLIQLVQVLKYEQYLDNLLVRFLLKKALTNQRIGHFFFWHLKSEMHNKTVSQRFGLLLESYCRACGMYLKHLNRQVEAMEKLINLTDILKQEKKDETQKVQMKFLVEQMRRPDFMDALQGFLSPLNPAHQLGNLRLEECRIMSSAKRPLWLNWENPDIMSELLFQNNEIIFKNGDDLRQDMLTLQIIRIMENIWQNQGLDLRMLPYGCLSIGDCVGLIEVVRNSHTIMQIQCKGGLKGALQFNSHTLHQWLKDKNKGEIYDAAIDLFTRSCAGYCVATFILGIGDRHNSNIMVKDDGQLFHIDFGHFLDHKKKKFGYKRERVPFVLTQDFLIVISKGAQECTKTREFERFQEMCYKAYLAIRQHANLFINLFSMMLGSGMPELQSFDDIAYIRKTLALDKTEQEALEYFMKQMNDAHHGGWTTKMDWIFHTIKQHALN
Protocol: Plot the concentration of each compound versus the emission ratio. […] Determination of IC50 values can be obtained by curve fitting (sigmoidal dose response, variable slope) using Prism software from GraphPad).
Method Type: Filter-Binding-Assay
Compounds are serially diluted in assay buffer+6% DMSO and 10 μl of each dilution is added per well of a 96-well plate (compounds are tested in duplicates) and mixed with 30 μl of the lipid vesicles containing PDGFR-Peptide (0.5 μM final) and PI3K alpha (25 ng/well final). The mixture is then incubated for 20 minutes at room temperature. Subsequently, 20 μl of assay buffer containing 3 μM cold ATP and 0.5 μCi/20 μl 33P-ATP are added. The plates are then incubated at room temperature for 120 minutes (shaking with 300 rpm). The reaction mix is transferred onto filter plates using “filtermate harvester” from Packard: filter plates are rinsed with PBS, then the reaction mix is filtered onto the filter plate, washed 5 times with PBS and are allowed to dry for 30-60 minutes at 50° C.
As positive control serve wells containing vehicle controls (1% DMSO in assay buffer), showing non-inhibited kinase activity (high values). Wells containing assay buffer instead of enzyme can serve as control for background activity (low values).
Calculate IC50 values using the Smiley program (based on GrapPad Prism)
Usually IC50 stands for the point on the concentration scale where inhibition reaches its midpoint. For `CCc1ncnc(-c2ccc(C(=O)N3CCN(C)C(=O)C3)c(F)c2)c1C#Cc1ccc(N)nc1` [Example D-133], the IC50 was 115 nM. The figure for `CCc1ncnc(-c2cc(F)c(C(=O)N3CCN(C=O)CC3)c(F)c2)c1C#Cc1ccc(NC)nc1` [Example E-219] is 163 nM; for `CCN(CC)C(=O)c1cccc(-c2ncnc(C)c2C#Cc2ccc(N)nc2)c1` [Example C-36] it is 308 nM; for `CCc1ncnc(-c2cccc(C(=O)N(CC)CC)c2)c1C#Cc1ccc(N)nc1` [Example C-44] it is 188 nM.

In the case of `CCc1ncnc(-c2ccc(C(=O)NC3CC(C)(C)N(C)C(C)(C)C3)c(F)c2)c1C#Cc1ccc(N)nc1` [Example D-202], the IC50 came to 413 nM. The figure for `CCc1ncnc(-c2ccc(C(=O)N3CCN(CC(C)O)CC3)c(Cl)c2)c1C#Cc1ccc(N)nc1` (stereo not shown) [Example E-317] is 92.8 nM; for `CCc1ncnc(-c2ccc(C(=O)N3CCC(O)(C(F)(F)F)CC3)c(F)c2)c1C#Cc1ccc(N)nc1` [Example D-123] it is 324 nM.

Regarding `CCc1ncnc(-c2ccc(C(=O)N3CCN(CCN)CC3)c(Cl)c2)c1C#Cc1ccc(N)nc1` [Example E-284], the IC50 stood at 181 nM. The figure for `CCc1ncnc(-c2ccc(Cl)c(C(=O)N3CCCCC3)c2)c1C#Cc1ccc(N)nc1` [Example C-48] is 596 nM; for `CCc1ncnc(-c2ccc(C(=O)N3CCN(C(C)C)CC3)c(OC)c2)c1C#Cc1ccc(N)nc1` [Example D-50] it is 211 nM; for `CCc1ncnc(-c2ccc(C(=O)NCCOC)c(Cl)c2)c1C#Cc1ccc(N)nc1` [Example D-33] it is 181 nM.

In the case of `CCc1ncnc(-c2ccc(C(=O)N3CCN(C4CCCC4)CC3)c(F)c2)c1C#Cc1ccc(N)nc1` [Example D-96], the IC50 came out at 151 nM.

On to `CCc1ncnc(-c2ccc(C(=O)N(C)O)c(Cl)c2)c1C#Cc1ccc(N)nc1` [Example E-35], for which the IC50 stood at 67.4 nM. As to `CCc1ncnc(-c2cc(F)c(C(=O)N3CCN(C)CC3)c(Cl)c2)c1C#Cc1ccc(N)nc1` [Example E-233], the IC50 came out at 89.8 nM. The figure for `CCc1ncnc(-c2ccc(C(=O)N3CCN(C4CCOCC4)CC3)c(Cl)c2)c1C#Cc1ccc(N)nc1` [Example D-31] is 97 nM. The figure for `CCc1ncnc(-c2cc(F)c(C(=O)N3CCN(C)C(=O)C3)c(Cl)c2)c1C#Cc1ccc(N)nc1` [Example E-239] is 46.2 nM; for `CCc1ncnc(-c2ccc(C(=O)N3CCN(CC)CC3)c(Cl)c2)c1C#Cc1ccc(NC)nc1` [Example E-189] it is 186 nM; for `CCc1ncnc(-c2ccc(C(=O)NCC3CCN(C)CC3)c(F)c2)c1C#Cc1ccc(N)nc1` [Example D-77] it is 303 nM. The figure for `CCCCN1CCN(C(=O)c2ccc(-c3ncnc(CC)c3C#Cc3ccc(N)nc3)cc2Cl)CC1` [Example D-29] is 162 nM; for `CCc1ncnc(-c2ccc(Cl)c(C(=O)N(CC)CC)c2)c1C#Cc1ccc(N)nc1` [Example C-47] it is 541 nM.

As to `CCc1ncnc(-c2ccc(C(=O)N3CCC(N4CCN(C)CC4)CC3)c(F)c2)c1C#Cc1ccc(NC)nc1` [Example E-183], the IC50 is 308 nM. The figure for `CCc1ncnc(-c2ccc(C(=O)N3CCN(c4ccccc4)CC3)c(F)c2)c1C#Cc1ccc(N)nc1C` [Example D-25] is 498 nM; for `CCc1ncnc(-c2ccc(C(=O)N3CCN(c4ccccc4)CC3)c(F)c2)c1C#Cc1ccc(N)nc1` [Example D-98] it is 199 nM; for `CCc1ncnc(-c2cc(F)c(C(=O)N3CCN(CCCS(C)(=O)=O)CC3)c(F)c2)c1C#Cc1ccc(N)nc1` [Example E-146] it is 45.8 nM. The figure for `CCc1ncnc(-c2ccc(C(=O)N3CCC(N4CCN(C)CC4)CC3)c(OC)c2)c1C#Cc1ccc(N)nc1` [Example E-45] is 96.9 nM. The figure for `CCc1ncnc(-c2ccc(C(=O)NC)c(F)c2)c1C#Cc1ccc(N)nc1` [Example D-5] is 225 nM. Take `CCc1ncnc(-c2ccc(C(=O)N3CCN(C4CCS(=O)(=O)C4)CC3)c(OC)c2)c1C#Cc1ccc(N)nc1` (stereo not shown) [Example E-54]: the IC50 is 165 nM. Consider `Cc1ncnc(-c2ccc(C(=O)N3CCN4CCCCC4C3)cc2)c1C#Cc1ccc(N)nc1` [Example D-191], for which the IC50 came out at 81 nM. The figure for `CCc1ncnc(-c2ccc(C(=O)N3CCN(C(C)CC)CC3)c(F)c2)c1C#Cc1ccc(N)nc1` [Example D-129] is 392 nM; for `CCc1ncnc(-c2cc(F)c(C(=O)N3CCn4cnnc4C3)c(F)c2)c1C#Cc1ccc(N)nc1` [Example E-148] it is 70.6 nM; for `CCc1ncnc(-c2ccc(C(=O)N3CCN(c4ccccn4)CC3)c(Cl)c2)c1C#Cc1ccc(N)nc1` [Example D-37] it is 118 nM. As for `CCc1ncnc(-c2ccc(C(=O)N3CCC(C)(O)CC3)c(Cl)c2)c1C#Cc1ccc(N)nc1` [Example E-25], the IC50 was 76.8 nM. Regarding `CCc1ncnc(-c2ccc(C(=O)N3CCC(N4CCN(C)CC4)CC3)c(F)c2)c1C#Cc1ccc(N)nc1` [Example D-62], the IC50 came out at 205 nM. The figure for `CCc1ncnc(-c2cc(F)c(C(=O)N3CCN(CCOC)CC3)c(F)c2)c1C#Cc1ccc(N)nc1` [Example E-5] is 78.8 nM; for `CCc1ncnc(-c2ccc(C(=O)N3CCN(C)C[C@H]3C)c(F)c2)c1C#Cc1ccc(N)nc1` [Example E-347] it is 205 nM. With `CCc1ncnc(-c2ccc(C(=O)NCCN3CCCC3=O)c(F)c2)c1C#Cc1ccc(N)nc1` [Example D-211], the IC50 worked out at 46 nM. Regarding `CCc1ncnc(-c2ccc(C(=O)N3CCN(C4CCCC4O)CC3)c(Cl)c2)c1C#Cc1ccc(N)nc1` (stereo not shown) [Example E-316], the IC50 was 57.1 nM.

In the case of `Cc1ncnc(-c2ccc(C(=O)N3CCCCO3)c(Cl)c2)c1C#Cc1ccc(N)nc1` [Example D-231], the IC50 was 46 nM. The figure for `CCc1ncnc(-c2ccc(C(=O)N3CCC(C)(O)CC3)c(Cl)c2)c1C#Cc1ccc(N)nc1` [Example D-143] is 77 nM; for `CCc1ncnc(-c2ccc(C(=O)N3CCC(C(C)(C)O)CC3)c(F)c2)c1C#Cc1ccc(N)nc1` [Example D-79] it is 170 nM; for `CCc1ncnc(-c2cc(F)c(C(=O)N3CCN4CCC[C@H]4C3)c(Cl)c2)c1C#Cc1ccc(N)nc1` [Example E-238] it is 175 nM.

In the case of `CCc1ncnc(-c2cc(F)c(C(=O)N3CC4(CN(C)C4)C3)c(Cl)c2)c1C#Cc1ccc(N)nc1` [Example E-289], the IC50 amounted to 298 nM. The figure for `CCc1ncnc(-c2ccc(C(=O)N3CCN(C4CCC4)CC3)c(Cl)c2)c1C#Cc1ccc(N)nc1` [Example E-252] is 48.2 nM.

Regarding `CCc1ncnc(-c2ccc(C(=O)N3CCN(CC(C)O)CC3)c(F)c2)c1C#Cc1ccc(N)nc1` (stereo not shown) [Example E-296], the IC50 worked out at 122 nM. The figure for `CCc1ncnc(-c2ccc(C(=O)N3CCC(O)(CC)CC3)c(F)c2)c1C#Cc1ccc(N)nc1` [Example D-125] is 269 nM. As to `CCc1ncnc(-c2ccc(C(=O)N3CCN(C(C)(C)C)CC3)c(OC)c2)c1C#Cc1ccc(N)nc1` [Example D-48], the IC50 was 251 nM.

For the compound `CCc1ncnc(-c2ccc(C(=O)N3CCN(C4CCCC4O)CC3)c(F)c2)c1C#Cc1ccc(N)nc1` (stereo not shown) [Example E-294], the IC50 was found to be 137 nM. For the compound `CCc1ncnc(-c2ccc(C(=O)N3CCC(C(C)(C)O)CC3)c(C(F)(F)F)c2)c1C#Cc1ccc(N)nc1` [Example E-232], the IC50 is 142 nM. The figure for `CCc1ncnc(-c2cc(F)c(C(=O)N3CCN(CC(F)F)CC3)c(F)c2)c1C#Cc1ccc(NC)nc1` [Example E-217] is 327 nM; for `CCc1ncnc(-c2ccc(C(=O)N3CCCN(C)CC3)c(Cl)c2)c1C#Cc1ccc(N)nc1` [Example E-36] it is 405 nM; for `Cc1cc(-c2ncnc(C)c2C#Cc2ccc(N)nc2)ccn1` [Example C-20] it is 58 nM.

In the case of `CCc1ncnc(-c2ccc(C(=O)N3CCCCC3)c(F)c2)c1C#Cc1ccc(N)nc1C` [Example D-10], the IC50 worked out at 206 nM. As for `CCc1ncnc(-c2ccc(C(=O)N3CCN(C(C)C)CC3)c(OC(F)(F)F)c2)c1C#Cc1ccc(N)nc1` [Example E-222], the IC50 stood at 530 nM.

For the compound `Cc1ncnc(-c2ccc(F)c(C(=O)N3CCOCC3)c2)c1C#Cc1ccc(N)nc1` [Example C-39], the IC50 is 380 nM.

`CCc1ncnc(-c2ccc(C(=O)N3CCCC(O)C3)c(F)c2)c1C#Cc1ccc(N)nc1` [Example D-110]: the IC50 turned out to be 64 nM. The figure for `CCNc1ccc(C#Cc2c(CC)ncnc2-c2ccc(C(=O)N3CCN(CCCS(C)(=O)=O)CC3)c(F)c2)cn1` [Example E-258] is 110 nM.

`CCc1ncnc(-c2ccc(C(=O)N3CCC(N(C)C)C3)c(F)c2)c1C#Cc1ccc(N)nc1` [Example D-215]: the IC50 was 227 nM.

Regarding `CCc1ncnc(-c2ccc(C(=O)N3CCN(CCN(C)C)CC3)c(OC)c2)c1C#Cc1ccc(N)nc1` [Example D-60], the half-inhibitory concentration (IC50) is 546 nM.

`CCc1ncnc(-c2ccc(C(=O)N3CCC(CN(C)C)CC3)c(F)c2)c1C#Cc1ccc(N)nc1` [Example E-272]: the IC50 worked out at 475 nM.

As for `CCc1ncnc(-c2cc(Cl)c(C(=O)N3CCN(C)C(=O)C3)c(Cl)c2)c1C#Cc1ccc(N)nc1` [Example E-195], the IC50 worked out at 20.3 nM. The figure for `CCCCN1CCN(C(=O)c2ccc(-c3ncnc(CC)c3C#Cc3ccc(N)nc3)cc2C)CC1` [Example E-86] is 147 nM; for `CCc1ncnc(-c2cc(F)c(C(=O)N3CCN(CCOCCO)CC3)c(F)c2)c1C#Cc1ccc(N)nc1` [Example E-302] it is 113 nM. As for `CCc1ncnc(-c2ccc(C(=O)N3CCC4(CC3)CN(C)C4)c(F)c2)c1C#Cc1ccc(N)nc1` [Example E-339], the IC50 is 331 nM. The figure for `CCc1ncnc(-c2ccc(C(=O)N3CCC(N4CCOCC4)C3)c(F)c2)c1C#Cc1ccc(N)nc1` [Example D-234] is 156 nM; for `CCc1ncnc(-c2ccc(C(=O)N3CC[C@@H](O)C3)c(Cl)c2)c1C#Cc1ccc(N)nc1` [Example E-28] it is 65.6 nM; for `CCc1ncnc(-c2ccc(C(=O)N3CCC4(CC3)CN(C(=O)OC(C)(C)C)CCO4)c(F)c2)c1C#Cc1ccc(N)nc1` [Example E-321] it is 412 nM. The figure for `CCc1ncnc(-c2cc(F)c(C(=O)N3CCN(C4COC4)CC3)c(Cl)c2)c1C#Cc1ccc(N)nc1` [Example E-282] is 173 nM.
